Consider 18 molecules from patent publication US20120190723A1, “VIRAL MODULATORS AND PROCESSES THEREOF” (priority 2010, published 2012).

Series [1] has as its system Rat mixed hippocampal cultures exposed to Tat1-72. Put plainly: Tat neurotoxicity in rat mixed hippocampal cultures (MTT). The series is classed as cell-based. Particulars: for protection against Tat mediated neurodegeneration: 1.0 and 3.0 uM, p<0.05, 500 nM Tat1-72, 18 hours; for neurotoxicity: 5.0 and 10.0 uM. As to the method:
After approximately 18 hours, cell survival may be measured by MTT assay. Statistical significance may be determined by ANOVA, followed by Newman-Keuls post hoc pair-wise comparisons.
In some aspects of embodiments, rat mixed hippocampal cultures may be preincubated with BIO prior to exposure to Tat. Cell death may be analyzed approximately 18 hours after Tat exposure by MTT assay.

Series [2] has as its system VEEV TC-83. The series is classed as in vivo, C3H/HeN mice. Particulars: for survival rate: SQ days −1, 1, 3, 5, BIO 50 mg/kg, BIOder 20 mg/kg, 14 days, vehicle 10%; for survival differential: vs vehicle control.
The subject of the next series is survivin, BID. Format: cell-based.
In series [3] the test system is VEEV TC-83. Kind of series: microbe, parasite or virus in culture. Format: cell-based, Venezuelan Equine Encephalitis Virus. Particulars: for effect on VEEV induced CPE: 1 μM, 48 hours post infection.
Series [4] concerns VEEV TC-83. Format: cell-based, Venezuelan Equine Encephalitis Virus. The following applies: 1 μM.
Series [5] concerns HIV-1 LTR Tat dependent transcription. Put plainly: cells. Particulars: Human immunodeficiency virus 1, TZM-bl, read-out: % Inhibition at 1 μM.
The test system of a further series is U87MG astrocytes. Particulars: for cellular viability of BIO analogs: 1 μM.
Series [6] has as its system HIV-1 LTR Tat dependent transcription. Particulars: TZM-bl cells transfected with Tat, compared to the DMSO control.
Series [7] has as its system VEEV TC-83. Kind of series: microbe, parasite or virus in culture. Particulars: Venezuelan equine encephalitis virus, U-87 MG, read-out: IC50, VEEV replication. The series is classed as cell-based.
For series [8], the target named is T1, GSK-3β (Homo sapiens, UniProt P49841). Format: biochemical. Also on record: Cells may be lysed and immunoprecipitated with control IgG and/or GSK-3β antibody; endogenous in cells.
Target sequence in this assay (P49841 whole entry, looked up): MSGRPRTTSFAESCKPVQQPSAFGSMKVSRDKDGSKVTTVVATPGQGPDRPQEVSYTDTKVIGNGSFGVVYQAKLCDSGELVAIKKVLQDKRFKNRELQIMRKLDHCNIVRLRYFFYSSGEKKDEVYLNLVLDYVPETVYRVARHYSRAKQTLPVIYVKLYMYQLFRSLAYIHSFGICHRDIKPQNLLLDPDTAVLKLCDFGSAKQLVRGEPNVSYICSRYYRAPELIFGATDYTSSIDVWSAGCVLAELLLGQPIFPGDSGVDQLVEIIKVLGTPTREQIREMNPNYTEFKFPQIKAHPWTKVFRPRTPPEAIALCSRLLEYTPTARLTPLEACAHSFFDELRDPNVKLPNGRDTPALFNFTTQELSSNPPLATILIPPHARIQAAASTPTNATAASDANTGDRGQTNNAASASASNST
The subject of series [9] is monocyte/macrophage from two healthy donors and U87MG. Kind of series: MTT toxicity in monocyte/macrophages and U87MG. Format: cell-based. The following applies: primary cells or cell line.
In series [10] the test system is HIV-rtTA KWK (Tat+) and KYK (Tat−) clones. Put plainly: dox-dependent HIV-rtTA variants (KWK, KYK) in macrophages, RT assay. Format: cell-based, HIV-1. Particulars: BIOder 50 nM, dox 1000 ng/ml, RT day 10.
The test system of series [11] is HIV-1 dual tropic 89.6. Put plainly: HIV-1 89.6 replication in U87MG cells (RT assay). Format: cell-based. Particulars: Human immunodeficiency virus 1, U-87 MG, 168 h; 89.6 infection, RT day 7.
Series [12] concerns the target T1, GSK-3β. Put plainly: GSK-3β immunoprecipitation in vitro kinase assay (U937 cells).
Target sequence in this assay (P49841 whole entry): as the sequence (P49841 whole entry, looked up) above
For series [13] the following is noted: in vivo.
Another series is described as follows: in vitro. The following applies: human.
Series [14] deals with HIV-1 dual tropic 89.6. Kind of series: HIV-1 89.6 replication in primary monocyte/macrophages (RT assay). Particulars: Human immunodeficiency virus 1, Primary macrophage, 168 h; 89.6 infection, RT day 7. The series is classed as cell-based.

The inhibition is the drop in the measured response relative to a control, in per cent. As a reminder, the % Inhibition is the relative decrease from the control value, in per cent. Low values mean a weak effect, high ones a strong effect. By IC50 is commonly meant the midpoint of a concentration-inhibition curve.

SMILES strings stand for the structures. “Also recorded” adds a separate entry of the source. Structures can show the parent of a compound that is named as a salt. Where two headings read alike, the source gives them in different places. Starred links: 1 amine or outer side, 2 acyl side, 3 side chain; linkers in the order of their positions; H or OH if unused. Positions of bridges follow the written chain, without caps; N, C: chain ends. Non-standard residues stand in square brackets, D forms with d. Residues, ends and D or L forms follow the SMILES beside them. Chains are numbered I, II in the order given. Actinocin(9to1) = Cc1c2oc3c(C)ccc(C(=O)[*:1])c3nc-2c(C(=O)[*:2])c(N)c1=O; NMeV = CN[C@H](C(=O)O)C(C)C; Sar = CNCC(=O)O Bounds are passed on as bounds.

Consider `O=C1Nc2cc(Br)ccc2/C1=C1/Nc2ccccc2/C1=N\O` [BIO, 6-bromoindirubin-3′-oxime, reference compound], for which, in series [1], the “protection against Tat mediated neurodegeneration” value is “significant neuroprotective effects” and the neurotoxicity result is “neurotoxicity observed”. Further, the “LD50 (neurotoxicity)” value in series [1] (rat mixed hippocampal cultures) is listed as “approximately 4 uM”. Also, in the series with VEEV TC-83 [2], the survival rate is on record as roughly 30% and the survival differential entry was “approximately 20%”. The survivin expression result in the series on survivin, BID was “relatively increase survivin expression”.

For `O=C1Nc2c(Br)cc(Br)cc2/C1=N/NC(=O)c1cc(-c2ccccc2)n[nH]1` [Compound 24, N′-(5,7-dibromo-2-oxo-1,2-dihydro-3H-indol-3-ylidene)-3-phenyl-1Hpyrazole-5-carbohydrazide], in the series on VEEV TC-83 [3], the “effect on VEEV induced CPE” value is listed as “increase observed CPE”.

For the molecule `Cc1c(Cl)ccc2c1NC(=O)/C2=C1/C(=O)Nc2ccccc21` [Compound 38, 6-chloro-7-methyl-3,3′-biindole-2,2′(1H,1′H)-dione], the “effect on VEEV (FIG. 11)” value in the series with VEEV TC-83 [4] is on record as “VEEV activators”.

Take `Cc1ccc2c(c1Br)/C(=N/NC(=O)Nc1ccccc1)C(=O)N2` [Compound 5, 4-bromo-5-methyl-1H-indole-2,3-dione 3-(N-phenylsemicarbazone)]: in the series on VEEV TC-83 [3], the “effect on VEEV induced CPE” value is listed as “increase observed CPE”.

In the case of `C=C[C@H]1CN2CC[C@H]1C[C@H]2[C@H](OC(=O)OCC)c1ccnc2ccc(OC)cc12` [Quinine ethyl carbonate], the inhibition at 1 µM in [5] worked out at 34%.

Turning to `Cc1ccc2c(c1Br)/C(=N/O)C(=O)N2` [Compound 4, 4-bromo-5-methyl-1H-indole-2,3-dione 3-oxime], the “effect on VEEV (FIG. 11)” value in the series with VEEV TC-83 [4] is reported as “VEEV activators”.

Consider `O=C1Nc2ccc(Br)cc2/C1=N\NC(=O)c1ccccc1NC(=O)c1ccccc1` [Compound 31, N-(2-{[2-(5-bromo-2-oxo-1,2-dihydro-3H-indol-3-ylidene)hydrazino]carbonyl}phenyl)benzamide], for which, in the series with VEEV TC-83 [3], the “effect on VEEV induced CPE” value is “inhibit CPE”.

For the molecule `COc1ccc(-c2cc(C(=O)N/N=C3/C(=O)Nc4ccc(Br)cc43)[nH]n2)cc1` [Compound 28, N′-(5-bromo-2-oxo-1,2-dihydro-3H-indol-3-ylidene)-3-(4-methoxyphenyl)-1H-pyrazole-5-carbohydrazide], the “effect on VEEV induced CPE” value in the series on VEEV TC-83 [3] is given as “inhibit CPE”.

Turning to `O=C1Nc2ccc(Br)cc2/C1=N/NC(=O)c1ccc(Cl)cc1Cl` [Compound 16, N′-(5-bromo-2-oxo-1,2-dihydro-3H-indol-3-ylidene)-2,4-dichlorobenzohydrazide], the “cellular viability of BIO analogs” value with U87MG astrocytes is “decrease in cellular viability”.

On to `O=C1Nc2ccccc2/C1=C1/Nc2ccccc2/C1=N\O` [Indirubin-3′-oxime], for which, in [6], the “% Inhibition at 1 μM” value was 25%.

In the case of `Cc1ccc2c(c1Br)C(=NNc1ccccc1)C(=O)N2` [Compound 17, 4-bromo-5-methyl-1H-indole-2,3-dione 3-(phenylhydrazone)], in the series with VEEV TC-83 [3], the “effect on VEEV induced CPE” value is reported as “inhibit CPE”.

Turning to `Cc1c2oc3c(C)ccc(C(=O)N[C@@H]4C(=O)N[C@H](C(C)C)C(=O)N5CCC[C@H]5C(=O)N(C)CC(=O)N(C)[C@@H](C(C)C)C(=O)O[C@@H]4C)c3nc-2c(C(=O)N[C@@H]2C(=O)N[C@H](C(C)C)C(=O)N3CCC[C@H]3C(=O)N(C)CC(=O)N(C)[C@@H](C(C)C)C(=O)O[C@@H]2C)c(N)c1=O` [Dactiniomycin, Dactinomycin] (I: T[dV]P[Sar][NMeV] / II: T[dV]P[Sar][NMeV]; ester I:1-I:C, II:1-II:C; linker I:N-II:N via Actinocin(9to1)), the inhibition at 1 µM in series [5] was 98%.

For `O=C1NC(=O)/C(=C2/C(=O)Nc3ccc(Br)cc32)N1` [Compound 33, 5-(5-bromo-2-oxo-1,2-dihydro-3H-indol-3-ylidene)-2,4-imidazolidinedione], the “cellular viability of BIO analogs” value in the series with U87MG astrocytes is listed as “decrease in cellular viability”.

Turning to `Cc1[nH]c2ccc(Br)cc2c1CC(=O)N/N=C1/C(=O)Nc2ccccc21` [Compound 21, 2-(5-bromo-2-methyl-1H-indol-3-yl)-N′-(2-oxo-1,2-dihydro-3H-indol-3-ylidene)acetohydrazide], in the series with VEEV TC-83 [4], the “effect on VEEV (FIG. 11)” value is “VEEV activators”.

In the case of `Cc1cc(C(=O)N/N=C2\C(=O)Nc3ccc(Br)cc32)[nH]n1` [Compound 32, N′-(5-bromo-2-oxo-1,2-dihydro-3H-indol-3-ylidene)-3-methyl-1Hpyrazole-5-carbohydrazide], the “cellular viability of BIO analogs” value in the series with U87MG astrocytes is recorded as “decrease in cellular viability”.

As for `COc1cccc2c1C(=O)c1c(O)c3c(c(O)c1C2=O)C[C@@](O)(C(=O)CO)C[C@@H]3O[C@H]1C[C@H](N)[C@@H](O)[C@H](C)O1` [Epirubicin hydrochloride], the inhibition at 1 µM in series [5] turned out to be 17%.

As to `O=C1Nc2ccc(Cl)cc2/C1=C1\C(=O)Nc2ccc(Br)cc21` [Compound 34, 5-bromo-5′-chloro-3,3′-biindole-2,2′(1H,1′H)-dione], the “cellular viability of BIO analogs” value in the series with U87MG astrocytes is listed as “decrease in cellular viability”.

`Cc1cc2c(cc1Br)NC(=O)/C2=N/N=C1/C(=O)Nc2cc(Br)c(C)cc21` [Compound 6, 6-bromo-5-methyl-1H-indole-2,3-dione 3-[(6-bromo-5-methyl-2-oxo-1,2-dihydro-3H-indol-3-ylidene)hydrazone]]: the concentration for half-maximal inhibition (IC50) was roughly 500 nM in the series with VEEV TC-83 [7]; less than 100 nM in the series on VEEV TC-83 [3] (Venezuelan equine encephalitis virus, U-87 MG, read-out: IC50 for inhibition of VEEV induced CPE); roughly 0.5 nM with HIV-1 dual tropic 89.6 [11]; roughly 0.03 nM at GSK-3β [12]; roughly 4 nM in the series on HIV-1 dual tropic 89.6 [14]. The “protection against Tat mediated neurodegeneration” value in series [1] is reported as “protective effect”. Moreover, the neurotoxicity result in series [1] is listed as “no neurotoxicity observed”. In addition, the GSK3-β kinase activity result at GSK-3β [8] was “much more relatively dramatic influence”. Also, the “Cytotoxic concentration (MTT)” value in series [9] is greater than 10 µM. For the same molecule, the survival rate entry in the series with VEEV TC-83 [2] is recorded as “approximately 50%”. In the series on VEEV TC-83 [2], the survival differential result is given as “approximately 40%”. Besides, the “viral replication of KWK (Tat+) and KYK (Tat−) clones” value in series [10] is “inhibited in the KWK (Tat+) and not KYK (Tat−) clone”. Moreover, in the series on VEEV TC-83 [3], the “effect on VEEV induced CPE” value was “inhibit CPE; also recorded: particularly strong inhibition”. The “cellular viability of VEEV infected cells” value with VEEV TC-83 [3] (72 hours post-infection, all concentrations employed) is listed as “relative increase in cellular viability”. Also, the cellular viability entry in the series on U87MG astrocytes is given as “no substantial effect on cellular viability”. In addition, the “inhibition of GSK-3β kinase activity” value against GSK-3β [12] (at approximately 1 nM, glycogen synthase peptide 2 substrate) was “approximately 90%”. Further, the mouse weight entry in series [13] is given as “substantially no treatment group showed weight loss”. In series [13] (mouse), the “signs of toxicity (lethargy, ruffling of coats, weight loss)” value was “Substantially no signs of toxicity”. Moreover, in “in vitro”, the CC50 was greater than 100000 nM. Further, the BID expression entry in the series on survivin, BID is “relatively strong decrease”. In addition, the survivin expression entry with survivin, BID is listed as “relative increase in the expression of survivin”.
